# Laboratory results as given in patent US9850283B2, “Macrocyclic inhibitors of the PD-1/PD-L1 and CD80(B7-1)/PD-L1 protein/protein interactions” (BRISTOL-MYERS SQUIBB COMPANY, priority 2013, dated 2017).
# Positions of bridges follow the written chain, without caps; N, C: chain ends. Non-standard residues stand in square brackets, D forms with d. Residues, ends and D or L forms follow the SMILES beside them. ξ: configuration not given here. Bta = N[C@@H](Cc1csc2ccccc12)C(=O)O; Hyp = O=C(O)[C@@H]1C[C@@H](O)CN1; NMeNle = CCCC[C@H](NC)C(=O)O; NMeA = CN[C@@H](C)C(=O)O; ξC = NC(CS)C(=O)O
# What was measured:
# Human PD-L1/PD-1 = target: T1, Human PD-L1/PD-1 (Homo sapiens, UniProt Q9NZQ7); assay: HTRF PD-1-Ig/PD-L1-His binding assay (human PD-L1); conditions: cluster symbol; read-out: HTRF IC50 cluster
# T1 construct: made in house; host or cells: HEK293T
# How it was run: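 Interaction of Fc-tagged soluble PD-1 with His-tagged soluble PD-L1 is monitored by time-resolved FRET. Donor is europium cryptate anti-Ig (1 nM final) and acceptor is APC anti-His (20 nM final). Assay buffer is dPBS with 0.1% BSA and 0.05% Tween-20.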
# [1] = target: T2, LK35.2-hPD-L1 cells / PE-labeled PD-1-Ig (Homo sapiens, UniProt Q9NZQ7); assay: LK35.2-hPD-L1 cell binding high-content screening assay; type: cell-based; conditions: cell binding assay, cell line not given; cluster symbol; read-out: CBA IC50 cluster
# T2 construct: expressed in transfected cells; host or cells: LK35.2 mouse B cell line
# How it was run: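 Compound effect on PD-1/PD-L1 binding is measured by imaging cell-associated phycoerythrin signal. Human PD-1-Ig (PE on Ig tag, 1 nM final) is applied with compound to a murine B cell line overexpressing human PD-L1 for 1 h at 37 °C in serum-containing RPMI.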
# T1 sequence (Q9NZQ7 with tags, fused parts or gaps): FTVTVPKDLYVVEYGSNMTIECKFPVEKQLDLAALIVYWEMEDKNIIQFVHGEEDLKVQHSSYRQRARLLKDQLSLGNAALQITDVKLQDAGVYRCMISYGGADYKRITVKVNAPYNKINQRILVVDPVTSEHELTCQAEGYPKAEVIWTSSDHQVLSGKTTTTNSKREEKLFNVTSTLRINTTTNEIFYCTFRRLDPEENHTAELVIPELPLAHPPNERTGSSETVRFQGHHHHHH
# T2 sequence (Q9NZQ7 19-290): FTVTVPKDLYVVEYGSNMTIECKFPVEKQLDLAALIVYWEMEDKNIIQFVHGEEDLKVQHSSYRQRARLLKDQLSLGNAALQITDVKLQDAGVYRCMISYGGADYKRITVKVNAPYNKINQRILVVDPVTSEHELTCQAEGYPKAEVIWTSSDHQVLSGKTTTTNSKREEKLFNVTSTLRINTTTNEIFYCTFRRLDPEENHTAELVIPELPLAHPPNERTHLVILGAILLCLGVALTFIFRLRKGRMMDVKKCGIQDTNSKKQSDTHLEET
Structure (SMILES),IC50 (Human PD-L1/PD-1) [nM],IC50 [1] [nM]
CCCC[C@H]1C(=O)N(C)[C@@H](C)C(=O)N[C@@H](CCCNC(=N)N)C(=O)NC(C(=O)NCC(N)=O)CSCC(=O)N[C@@H](Cc2ccc(O)cc2)C(=O)N(C)[C@@H](C)C(=O)N[C@@H](CC(N)=O)C(=O)N2CCC[C@H]2C(=O)N[C@@H](Cc2cnc[nH]2)C(=O)N[C@@H](CC(C)C)C(=O)N2CCC[C@H]2C(=O)N[C@@H](Cc2c[nH]c3ccccc23)C(=O)N[C@@H](CO)C(=O)N[C@@H](Cc2csc3ccccc23)C(=O)N1C (stereo partly drawn) [Example 9053] ({CH2CO}-Y[NMeA]NPHLPWS[Bta][NMeNle][NMeA]R[ξC]G-NH2; thioether N-14),6.76 to 30.3,4.78 to 72.9
CCCC[C@H]1C(=O)N(C)[C@@H](C)C(=O)N[C@@H](CCCNC(=N)N)C(=O)NC(C(=O)NCC(N)=O)CSCC(=O)N[C@@H](Cc2ccc(O)cc2)C(=O)N(C)[C@@H](C)C(=O)N[C@@H](CC(N)=O)C(=O)N2CCC[C@H]2C(=O)N[C@@H](Cc2cnc[nH]2)C(=O)N[C@@H](CC(C)C)C(=O)N2CCC[C@H]2C(=O)N[C@@H](Cc2c[nH]c3ccccc23)C(=O)N[C@@H](CO)C(=O)N[C@@H](Cc2c[nH]c3ccccc23)C(=O)N1C (stereo partly drawn) [Example 9054] ({CH2CO}-Y[NMeA]NPHLPWSW[NMeNle][NMeA]R[ξC]G-NH2; thioether N-14),0.385 to 6.74,4.78 to 72.9
CCCC[C@H]1C(=O)N(C)[C@@H](C)C(=O)N[C@@H](CCCNC(=N)N)C(=O)NC(C(=O)NCC(N)=O)CSCC(=O)N[C@@H](Cc2ccc(O)cc2)C(=O)N(C)[C@@H](C)C(=O)N[C@@H](CC(N)=O)C(=O)N2CCC[C@H]2C(=O)N[C@@H](Cc2cnc[nH]2)C(=O)N[C@@H](CC(C)C)C(=O)N2C[C@H](O)C[C@H]2C(=O)N[C@@H](Cc2c[nH]c3ccccc23)C(=O)N[C@@H](CO)C(=O)N[C@@H](Cc2c[nH]c3ccccc23)C(=O)N1C (stereo partly drawn) [Example 9055],0.385 to 6.74,0.158 to 4.71
CCCC[C@H]1C(=O)N[C@@H](CCCNC(=N)N)C(=O)NC(C(=O)NCC(N)=O)CSCC(=O)N[C@@H](Cc2ccc(O)cc2)C(=O)N(C)[C@@H](C)C(=O)N[C@@H](CC(N)=O)C(=O)N2CCC[C@H]2C(=O)N[C@@H](Cc2cnc[nH]2)C(=O)N[C@@H](CC(C)C)C(=O)N2C[C@H](O)C[C@H]2C(=O)N[C@@H](Cc2c[nH]c3ccccc23)C(=O)N[C@@H](CO)C(=O)N[C@@H](Cc2csc3ccccc23)C(=O)N(C)[C@@H](C)C(=O)N1C (stereo partly drawn) [Example 9056] ({CH2CO}-Y[NMeA]NPHL[Hyp]WS[Bta][NMeA][NMeNle]R[ξC]G-NH2; thioether N-14),0.385 to 6.74,0.158 to 4.71
CCCC[C@H]1C(=O)N(C)[C@@H](C)C(=O)N[C@@H](CCCNC(=N)N)C(=O)NC(C(=O)NCC(N)=O)CSCC(=O)N[C@@H](Cc2ccc(O)cc2)C(=O)N(C)[C@@H](C)C(=O)N[C@@H](CC(N)=O)C(=O)N2CCC[C@H]2C(=O)N[C@@H](Cc2cnc[nH]2)C(=O)N[C@@H](CC(C)C)C(=O)N2C[C@H](O)C[C@H]2C(=O)N[C@@H](Cc2c[nH]c3ccccc23)C(=O)N[C@@H](CO)C(=O)N[C@@H](Cc2csc3ccccc23)C(=O)N1C (stereo partly drawn) [Example 9058] ({CH2CO}-Y[NMeA]NPHL[Hyp]WS[Bta][NMeNle][NMeA]R[ξC]G-NH2; thioether N-14),0.385 to 6.74,0.158 to 4.71
CCCC[C@H]1C(=O)N(C)[C@@H](CCCC)C(=O)N[C@@H](CCCNC(=N)N)C(=O)NC(C(=O)NCC(N)=O)CSCC(=O)N[C@@H](Cc2ccc(O)cc2)C(=O)N(C)[C@@H](C)C(=O)N[C@@H](CC(N)=O)C(=O)N2CCC[C@H]2C(=O)N[C@@H](CC(N)=O)C(=O)N[C@@H](CC(C)C)C(=O)N2CCC[C@H]2C(=O)N[C@@H](Cc2c[nH]c3ccccc23)C(=O)N[C@@H](CO)C(=O)N[C@@H](Cc2c[nH]c3ccccc23)C(=O)N1C (stereo partly drawn) [Example 9059] ({CH2CO}-Y[NMeA]NPNLPWSW[NMeNle][NMeNle]R[ξC]G-NH2; thioether N-14),6.76 to 30.3,4.78 to 72.9
CCCC[C@H]1C(=O)N(C)[C@@H](CCCC)C(=O)N[C@@H](CCCNC(=N)N)C(=O)NC(C(=O)NCC(N)=O)CSCC(=O)N[C@@H](Cc2ccc(O)cc2)C(=O)N(C)[C@@H](C)C(=O)N[C@@H](CC(N)=O)C(=O)N2CCC[C@H]2C(=O)N[C@@H](CC(N)=O)C(=O)N[C@@H](CC(C)C)C(=O)N2CCC[C@H]2C(=O)N[C@@H](Cc2c[nH]c3ccccc23)C(=O)N[C@@H](CO)C(=O)N[C@@H](Cc2csc3ccccc23)C(=O)N1C (stereo partly drawn) [Example 9060] ({CH2CO}-Y[NMeA]NPNLPWS[Bta][NMeNle][NMeNle]R[ξC]G-NH2; thioether N-14),0.385 to 6.74,0.158 to 4.71
CCCC[C@H]1C(=O)N(C)[C@@H](CCCC)C(=O)N[C@@H](CCCNC(=N)N)C(=O)NC(C(=O)NCC(N)=O)CSCC(=O)N[C@@H](Cc2ccc(O)cc2)C(=O)N(C)[C@@H](C)C(=O)N[C@@H](CC(N)=O)C(=O)N2CCC[C@H]2C(=O)N[C@@H](CC(N)=O)C(=O)N[C@@H](CC(C)C)C(=O)N2C[C@H](O)C[C@H]2C(=O)N[C@@H](Cc2c[nH]c3ccccc23)C(=O)N[C@@H](CO)C(=O)N[C@@H](Cc2c[nH]c3ccccc23)C(=O)N1C (stereo partly drawn) [Example 9061] ({CH2CO}-Y[NMeA]NPNL[Hyp]WSW[NMeNle][NMeNle]R[ξC]G-NH2; thioether N-14),0.385 to 6.74,0.158 to 4.71
CCCC[C@H]1C(=O)N(C)[C@@H](CCCC)C(=O)N[C@@H](CCCNC(=N)N)C(=O)NC(C(=O)NCC(N)=O)CSCC(=O)N[C@@H](Cc2ccc(O)cc2)C(=O)N(C)[C@@H](C)C(=O)N[C@@H](CC(N)=O)C(=O)N2CCC[C@H]2C(=O)N[C@@H](CC(N)=O)C(=O)N[C@@H](CC(C)C)C(=O)N2C[C@H](O)C[C@H]2C(=O)N[C@@H](Cc2c[nH]c3ccccc23)C(=O)N[C@@H](CO)C(=O)N[C@@H](Cc2csc3ccccc23)C(=O)N1C (stereo partly drawn) [Example 9062] ({CH2CO}-Y[NMeA]NPNL[Hyp]WS[Bta][NMeNle][NMeNle]R[ξC]G-NH2; thioether N-14),0.385 to 6.74,0.158 to 4.71
CCCC[C@H]1C(=O)N(C)[C@@H](CCCC)C(=O)N[C@@H](CCCNC(=N)N)C(=O)NC(C(=O)NCC(N)=O)CSCC(=O)N[C@@H](Cc2ccc(O)cc2)C(=O)N(C)[C@@H](C)C(=O)N[C@@H](CC(N)=O)C(=O)N2CCC[C@H]2C(=O)N[C@@H](Cc2cnc[nH]2)C(=O)N[C@@H](CC(N)=O)C(=O)N2CCC[C@H]2C(=O)N[C@@H](Cc2c[nH]c3ccccc23)C(=O)N[C@@H](CO)C(=O)N[C@@H](Cc2c[nH]c3ccccc23)C(=O)N1C (stereo partly drawn) [Example 9063] ({CH2CO}-Y[NMeA]NPHNPWSW[NMeNle][NMeNle]R[ξC]G-NH2; thioether N-14),0.385 to 6.74,0.158 to 4.71
CCCC[C@H]1C(=O)N(C)[C@@H](CCCC)C(=O)N[C@@H](CCCNC(=N)N)C(=O)NC(C(=O)NCC(N)=O)CSCC(=O)N[C@@H](Cc2ccc(O)cc2)C(=O)N(C)[C@@H](C)C(=O)N[C@@H](CC(N)=O)C(=O)N2CCC[C@H]2C(=O)N[C@@H](Cc2cnc[nH]2)C(=O)N[C@@H](CC(N)=O)C(=O)N2CCC[C@H]2C(=O)N[C@@H](Cc2c[nH]c3ccccc23)C(=O)N[C@@H](CO)C(=O)N[C@@H](Cc2csc3ccccc23)C(=O)N1C (stereo partly drawn) [Example 9064] ({CH2CO}-Y[NMeA]NPHNPWS[Bta][NMeNle][NMeNle]R[ξC]G-NH2; thioether N-14),0.385 to 6.74,0.158 to 4.71
CCCC[C@H]1C(=O)N(C)[C@@H](CCCC)C(=O)N[C@@H](CCCNC(=N)N)C(=O)NC(C(=O)NCC(N)=O)CSCC(=O)N[C@@H](Cc2ccc(O)cc2)C(=O)N(C)[C@@H](C)C(=O)N[C@@H](CC(N)=O)C(=O)N2CCC[C@H]2C(=O)N[C@@H](Cc2cnc[nH]2)C(=O)N[C@@H](CC(N)=O)C(=O)N2C[C@H](O)C[C@H]2C(=O)N[C@@H](Cc2c[nH]c3ccccc23)C(=O)N[C@@H](CO)C(=O)N[C@@H](Cc2c[nH]c3ccccc23)C(=O)N1C (stereo partly drawn) [Example 9065] ({CH2CO}-Y[NMeA]NPHN[Hyp]WSW[NMeNle][NMeNle]R[ξC]G-NH2; thioether N-14),0.385 to 6.74,0.158 to 4.71
CCCC[C@H]1C(=O)N(C)[C@@H](CCCC)C(=O)N[C@@H](CCCNC(=N)N)C(=O)NC(C(=O)NCC(N)=O)CSCC(=O)N[C@@H](Cc2ccc(O)cc2)C(=O)N(C)[C@@H](C)C(=O)N[C@@H](CC(N)=O)C(=O)N2CCC[C@H]2C(=O)N[C@@H](Cc2cnc[nH]2)C(=O)N[C@@H](CC(N)=O)C(=O)N2C[C@H](O)C[C@H]2C(=O)N[C@@H](Cc2c[nH]c3ccccc23)C(=O)N[C@@H](CO)C(=O)N[C@@H](Cc2csc3ccccc23)C(=O)N1C (stereo partly drawn) [Example 9066] ({CH2CO}-Y[NMeA]NPHN[Hyp]WS[Bta][NMeNle][NMeNle]R[ξC]G-NH2; thioether N-14),0.385 to 6.74,0.158 to 4.71
CCCC[C@H]1C(=O)N(C)[C@@H](CCCC)C(=O)N[C@@H](CCCNC(=N)N)C(=O)NC(C(=O)NCC(N)=O)CSCC(=O)N[C@@H](Cc2ccc(O)cc2)C(=O)N(C)[C@@H](C)C(=O)N[C@@H](CC(N)=O)C(=O)N2CCC[C@H]2C(=O)N[C@@H](Cc2cnc[nH]2)C(=O)N[C@@H](CO)C(=O)N2CCC[C@H]2C(=O)N[C@@H](Cc2c[nH]c3ccccc23)C(=O)N[C@@H](CO)C(=O)N[C@@H](Cc2c[nH]c3ccccc23)C(=O)N1C (stereo partly drawn) [Example 9067] ({CH2CO}-Y[NMeA]NPHSPWSW[NMeNle][NMeNle]R[ξC]G-NH2; thioether N-14),0.385 to 6.74,0.158 to 4.71
CCCC[C@H]1C(=O)N(C)[C@@H](CCCC)C(=O)N[C@@H](CCCNC(=N)N)C(=O)NC(C(=O)NCC(N)=O)CSCC(=O)N[C@@H](Cc2ccc(O)cc2)C(=O)N(C)[C@@H](C)C(=O)N[C@@H](CC(N)=O)C(=O)N2CCC[C@H]2C(=O)N[C@@H](Cc2cnc[nH]2)C(=O)N[C@@H](CO)C(=O)N2C[C@H](O)C[C@H]2C(=O)N[C@@H](Cc2c[nH]c3ccccc23)C(=O)N[C@@H](CO)C(=O)N[C@@H](Cc2c[nH]c3ccccc23)C(=O)N1C (stereo partly drawn) [Example 9069] ({CH2CO}-Y[NMeA]NPHS[Hyp]WSW[NMeNle][NMeNle]R[ξC]G-NH2; thioether N-14),0.385 to 6.74,0.158 to 4.71
